Laboratory results: patent US5173405A, “Use of arsenite to reversibly block steroid binding to glucocorticoid receptors in the presence of other steroid receptors” (priority 1990, dated 1992)

Legend:
[1] = test system: steroid-free glucocorticoid receptors; assay: Reversal by thiols of arsenite inhibition of [3H]Dex binding to steroid-free receptors; conditions: receptors preincubated with 40 uM arsenite 30 min, then thiol 30 min
Method: Referring to FIG. 4, steroid-free receptors in pH 8.8 TAPS buffer containing 21 mM Na2 MoO4 were preincubated with 40 uM arsenite for 30 min and then adjusted to various concentrations of DTT or β-MERC by addition of 100× solutions of each thiol in pH 8.8 TAPS buffer. After a further 30 min preincubation, the binding activity of these receptors was assayed by incubating with [^3 H]Dex±excess [^1 H]Dex for 2.5 hr. The amount of specific binding (determined as described above for FIG. 1A) of [^3 H]Dex after DTT(o) and β-MERC preincubation was expressed as a percent of the untreated control.
(§1) The growth of HTC cells at 37° C. in spinner and monolayer cultures of Swim's S77 medium (GIBCO; Grand Island, N.Y.) supplemented with 5% fetal and 5% newborn bovine serum (both obtained from Biofluids; Rockville, Md.) and 0.03% glutamine are described in Thompson, 1979. HTC cell cytosol containing the steroid-free receptors was prepared, stored in liquid N2, and labelled as set forth in Reichman et al., Biochem., 23, 5376-5384, 1984; Simons et al., Biochem., 23, 6876-6882, 1984. […] The specifically bound [^3 H]Dex was determined by first adding a 10% dextran-coated charcoal solution (added volume=20% of reaction solution volume) to remove free steroid and then subtracting the nonspecific binding seen in the presence of excess [^1 H]Dex.

[2] = test system: 16 kDa steroid-binding core fragment of HTC cell receptors; assay: [3H]Dex binding to trypsin-generated 16 kDa core fragment after preincubation with arsenite or MMTS; parameters: species or system rat; conditions: preincubation with arsenite 30 min or MMTS 2.5 hr
Method: Referring to FIG. 6, duplicate samples of steroid-free receptors in pH 8.8 TAPS buffer containing 21 mM Na2 MoO4 were digested with trypsin (14 μg/ml for 1 hr), to generate the 16 kDa core fragment of the receptor, followed by a 10-fold (wt/wt) excess of soybean trypsin inhibitor to block further digestion. The samples were then treated with various concentrations of arsenite (for 30 min) or MMTS (for 2.5 hr) before determining the remaining [^3 H]Dex binding as described above for FIG. 1A.
as §1

[3] = biological target: T1, glucocorticoid receptors (HTC cell receptors) (Rattus norvegicus, UniProt P06536); assay: [3H]Dex binding to HTC cell cytosol receptors after preincubation with MMTS or arsenite; conditions: for inactivation of steroid-binding activity of glucocorticoid receptors: low concentrations of MMTS, very low concentrations of arsenite
T1 sequence (P06536 1-795): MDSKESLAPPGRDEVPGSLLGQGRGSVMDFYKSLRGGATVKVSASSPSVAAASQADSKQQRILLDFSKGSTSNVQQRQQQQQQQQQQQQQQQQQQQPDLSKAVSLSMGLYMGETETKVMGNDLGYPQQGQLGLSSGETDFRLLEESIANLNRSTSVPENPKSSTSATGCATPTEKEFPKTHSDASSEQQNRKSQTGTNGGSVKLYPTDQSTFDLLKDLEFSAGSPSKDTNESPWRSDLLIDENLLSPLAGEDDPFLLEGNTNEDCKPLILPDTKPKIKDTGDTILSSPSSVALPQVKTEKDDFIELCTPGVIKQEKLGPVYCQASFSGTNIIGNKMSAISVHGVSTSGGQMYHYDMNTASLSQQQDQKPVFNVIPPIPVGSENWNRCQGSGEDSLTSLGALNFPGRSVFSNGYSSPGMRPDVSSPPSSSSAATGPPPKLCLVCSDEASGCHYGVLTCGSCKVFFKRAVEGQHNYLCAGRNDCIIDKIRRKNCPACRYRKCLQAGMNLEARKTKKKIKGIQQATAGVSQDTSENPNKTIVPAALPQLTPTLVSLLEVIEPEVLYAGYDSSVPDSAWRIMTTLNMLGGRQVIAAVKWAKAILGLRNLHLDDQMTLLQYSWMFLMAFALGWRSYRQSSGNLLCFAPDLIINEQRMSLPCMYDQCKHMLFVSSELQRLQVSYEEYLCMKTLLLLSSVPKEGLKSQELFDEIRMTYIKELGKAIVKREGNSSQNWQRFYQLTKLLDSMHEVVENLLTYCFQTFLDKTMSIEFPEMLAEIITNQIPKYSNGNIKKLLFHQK
Method: Referring to FIG. 1A, duplicate samples of HTC cell (Thompson, E.B., Methods Enzymol., 58, 544-551 [1979]) cytosol solution were pretreated with various concentrations of MMTS in absolute EtOH (final concentration of ETOH=1%) for 0 hr (.smallcircle.), 0.5 hr, or 2.5 hr before the addition of [^3 H]Dex±[^1 H]Dex. After a further 2.5 hr incubation, the free steroid was removed by the addition of dextran-coatedcharcoal. The specific binding to receptors was determined as described by Miller and Simons, J. Biol. Chem., 263, 15217-15225, 1988) (see also section entitled "Cells and preparation and labelling of receptors" below) and plotted as percentage of the EtOH-pretreated control versus the concentration of MMTS. The data points shown are the average values derived from 1-5 experiments.
Referring to FIG. 1B, duplicate samples of HTC cell cytosol solution were treated with various concentrations of MMTS for 2.5 hr before determining the remaining steroid binding activity of the receptors as described above for FIG. 1A.
Referring to FIG. 3, steroid-free receptors containing 21 mM Na2 MoO4 were incubated with various concentrations of 100× (in pH 8.8 TAPS buffer) arsenite for 30 min. The binding activity of these receptors was then assayed by incubating with [^3 H]Dex±excess [^1 H]Dex for 2.5 hr. The amount of specific binding of [^3 H]Dex (determined as described above for FIG. 1A) after arsenite preincubation was expressed as a percent of the untreated control.
as §1, with “1979.” for “1979. HTC cell cytosol containing the steroid-free receptors was prepared, stored in liquid N2, and labelled as set forth in Reichman et al., Biochem., 23, 5376-5384, 1984; Simons et al., Biochem., 23, 6876-6882, 1984.”

[4] = test system: human glucocorticoid receptors; assay: [3H]steroid binding of glucocorticoid receptors in MCF-7 cell cytosol after arsenite preincubation; conditions: arsenite between 100 and 500 μM
Method: (§2) Referring to FIG. 7, steroid-free receptors (glucocorticoid, estrogen, and progesterone receptors in MCF-7 cell [from NCI, NIH] cytosol in pH 7.5 HEPES buffer containing 21 mM Na2 MoO4) were treated with various concentrations of 100× (in pH 7.5 HEPES buffer) sodium arsenite for 30 min. The binding activity of these receptors was then assayed by incubating with [^3 H]steroid±[^1 H]steroid for 2.5 hr. The amount of specific binding of [^3 H]steroid (as described above for FIG. 1A) after arsenite preincubation was expressed as the percent of the untreated control for glucocorticoid estrogen (Δ), and progesterone (.smallcircle.) receptors.
(§3) MCF-7 cells (obtained from NIH) were grown as monolayer cultures in Richter's IMEM (NIH Media Unit, NIH) (supplemented with 10% fetal bovine serum [Biofluids] and 0.03% glutamine) in an atmosphere of 5% CO2 /95% air at 37° C. Crude receptor solutions were prepared by freeze-thaw lysis (in liquid N2) of cells washed in phosphate buffered saline (Reichman et al., 1984; Simons et al., 1984). The cell lysates were treated with either […] TAPS or pH 7.5 HEPES buffer (containing 20 mM Na2 MoO4) and centrifuged at 2500×g for 10 min or 100,000×g for 60 min. […]

[5] = test system: human estrogen and progesterone receptors (other receptors); assay: [3H]steroid binding of estrogen and progesterone receptors in MCF-7 cell cytosol after arsenite preincubation; conditions: arsenite between 100 and 500 μM
Method: as §2, §3

Row | Compound | reversal of arsenite inhibition of steroid binding [1] | inhibition of [3H]Dex binding to 16 kDa steroid-binding core fragment [2] | inactivation of steroid-binding activity of glucocorticoid receptors [3] | preferred MMTS concentration for blocking rat glucocorticoid receptors ([3]; rat glucocorticoid receptors) | inhibition of glucocorticoid binding [4] | effect on other receptors [5]
1 | O[C@H](CS)[C@H](O)CS (racemic) [DTT, dithiothreitol] | reversal of arsenite inhibition of steroid binding | – | – | – | – | –
2 | CSS(C)(=O)=O [MMTS, methyl methanethiolsulfonate] | – | inhibition of [^3 H]Dex binding | specifically and reversibly inactivate all of the steroid-binding activity of glucocorticoid receptors | approximately 300 μM | – | –
3 | O=[As]O [arsenite, sodium arsenite] | – | inhibition of [^3 H]Dex binding | specifically and reversibly inactivate all of the steroid-binding activity of glucocorticoid receptors | – | complete inhibition of glucocorticoid binding | little effect on other receptors
4 | OCCS [β-MERC, β-mercaptoethanol] | reversal of arsenite inhibition of steroid binding | – | – | – | – | –
